Data published in patent US4293489A, “Derivatives of A-30912A nucleus” (Eli Lilly and Company, priority 1980, dated 1981).
Starred links: 1 amine or outer side, 2 acyl side, 3 side chain; linkers in the order of their positions; H or OH if unused. Positions of bridges follow the written chain, without caps; N, C: chain ends. Non-standard residues stand in square brackets, D forms with d. Residues, ends and D or L forms follow the SMILES beside them. *: point of attachment. Orn(4R-OH,5R-OH) = O=C([C@H](C[C@@H](O)[C@@H](O)N[*:3])N[*:1])[*:2]; hTyr(3S-OH,4S-OH) = N[C@H](C(=O)O)[C@H](O)[C@@H](O)c1ccc(O)cc1; Pro(3S-OH,4S-Me) = C[C@H]1CN[C@H](C(=O)O)[C@H]1O; X4 = CCCCCCCCCCS(=O)(=O)c1ccc(C(=O)*)cc1; X23 = CCCCCCCCS(=O)(=O)c1ccc(C(=O)*)cc1; X22 = CCCCCCCCCCCCOc1ccc(CCC(=O)*)cc1; X25 = CCCCCCCCCCOc1ccc(OCC(=O)*)cc1; X21 = CCCCCCCCOc1ccc(CCC(=O)*)cc1; Hyp = O=C(O)[C@@H]1C[C@@H](O)CN1; X29 = CCCCCCCOc1ccc(CCC(=O)*)cc1; X30 = CCCCCCCCOc1ccc(C(=O)*)cn1; X26 = CCCCCOc1ccc(CCC(=O)*)cc1

What was measured:
[1] = tested on: Candida albicans A-26; test: Agar plate disc diffusion test, MIC per disc; assay type: cell-based; conditions: 0.1M sodium borate, pH 7.5, 24 hours, 30° C.
Protocol: (§1) Tables 10 and 11 give the results of the testing in vitro of the compounds of Examples 3 and 4 by agar-plate disc-diffusion methods. In Table 10 activity is measured by the size (diameter in mm) of the observed zone of inhibition of the microorganism produced by the test compound. In Table 11, activity is measured by the minimal inhibitory concentration (MIC) of the substance (μg/disc) required to inhibit growth of the test organism. Table 12 gives the results of the testing in vitro of the p-(n-octyloxy)benzoyl derivative of A30912A nucleus [Formula III, R^1 is p-(n-octyloxy)benzoyl] against five strains of Candida albicans by the agar dilution method. In Table 12 activity is measured by the minimal inhibitory concentration (MIC) of the substance (μg/ml) required to inhibit the test organism.
(§2) ^(a) Compounds were suspended in 0.1M sodium borate solution, pH 7.5.
(§3) The compounds were tested at 20 μg/disc at top level and at twofold
(§4) dilutions until end points were reached. Incubation: 24 hours; 30°

[2] = tested on: Trychophyton mentagrophyes #6; test: Agar plate disc diffusion test, MIC per disc; assay type: cell-based, Trichophyton mentagrophytes; conditions: 0.1M sodium borate, pH 7.5, 24 hours, 30° C., * measurable zones with regrowth of organism around disc
Protocol: as §1, §2, §3, §4
*Measurable zones of inhibition with regrowth of organism around disc.

[3] = tested on: Candida albicans A-26; test: Therapeutic activity against Candida albicans A-26 infection in mice, ED50; assay type: in vivo; conditions: Candida albicans, A26, sc, doses 0, 4 and 24 hours post infection, increase in survival time vs control, Reed-Muench, read-out: ED50
Protocol: The results of in vivo tests to evaluate the effectiveness of the compounds of Examples 3 and 4 against an infection caused by Candida albicans A-26 in mice are given in Table 13, where activity is measured by the ED50 value (the dose in mg/kg. required to cure 50% of the test animals). In a separate test, the results of which are also summarized in Table 13, activity is indicated by the lowest dose at which a significant anti-fungal effect is observed. In this test, groups of male albino mice (specific pathogen free), weighing 18 to 20 grams, are infected intravenously with Candida albicans A-26. The animals are X-irradiated 24 hours prior to infection at about 50 roentgens per minute for 8 minutes (400 total dose) to reduce immune responses to the infecting organism. At 0, 4, and 24 hours post infection each group of mice is given graded doses subcutaneously of the test compound as a suspension in 33% polyethylene glycol (PEG)-water. The day of death for each animal is recorded.
*Dosage Schedules: A. = 40, 20, 15 and 10 mg/kg; Dosages given 0, 4, and
24 hours post injection as suspension of test compound in 30% PEGH2
O. Number of mice receiving test compounds at each dosage level: 6 mice
per group. Number of mice in control (untreated) group: 10 mice per group
**As measured by increase in survival time of treated animals versus
control, calculated by method of Reed v Mueuch, American J. Hygiene, 27,

SMILES | MIC [1] [μg/disc] | MIC [2] [μg/disc] | ED50 [3] [mg/kg]
CCCCCCCCOc1ccc(C(=O)N[C@H]2C[C@@H](O)[C@@H](O)NC(=O)[C@@H]3[C@@H](O)[C@@H](C)CN3C(=O)[C@H]([C@@H](C)O)NC(=O)[C@H]([C@H](O)[C@@H](O)c3ccc(O)cc3)NC(=O)[C@@H]3C[C@@H](O)CN3C(=O)[C@H]([C@@H](C)O)NC2=O)cn1 (X30-[Orn(4R-OH,5R-OH)]T[Hyp][hTyr(3S-OH,4S-OH)]T[Pro(3S-OH,4S-Me)]; lactam 1-C) | 80 | 2.5 | –
CCCCCCCCS(=O)(=O)c1ccc(C(=O)N[C@H]2C[C@@H](O)[C@@H](O)NC(=O)[C@@H]3[C@@H](O)[C@@H](C)CN3C(=O)[C@H]([C@@H](C)O)NC(=O)[C@H]([C@H](O)[C@@H](O)c3ccc(O)cc3)NC(=O)[C@@H]3C[C@@H](O)CN3C(=O)[C@H]([C@@H](C)O)NC2=O)cc1 [drawing 159] (X23-[Orn(4R-OH,5R-OH)]T[Hyp][hTyr(3S-OH,4S-OH)]T[Pro(3S-OH,4S-Me)]; lactam 1-C) | – | – | 57
CCCCCCCCCCS(=O)(=O)c1ccc(C(=O)N[C@H]2C[C@@H](O)[C@@H](O)NC(=O)[C@@H]3[C@@H](O)[C@@H](C)CN3C(=O)[C@H]([C@@H](C)O)NC(=O)[C@H]([C@H](O)[C@@H](O)c3ccc(O)cc3)NC(=O)[C@@H]3C[C@@H](O)CN3C(=O)[C@H]([C@@H](C)O)NC2=O)cc1 [drawing 160] (X4-[Orn(4R-OH,5R-OH)]T[Hyp][hTyr(3S-OH,4S-OH)]T[Pro(3S-OH,4S-Me)]; lactam 1-C) | – | – | 57
CCCCCCCCOc1ccc(CCC(=O)N[C@H]2C[C@@H](O)[C@@H](O)NC(=O)[C@@H]3[C@@H](O)[C@@H](C)CN3C(=O)[C@H]([C@@H](C)O)NC(=O)[C@H]([C@H](O)[C@@H](O)c3ccc(O)cc3)NC(=O)[C@@H]3C[C@@H](O)CN3C(=O)[C@H]([C@@H](C)O)NC2=O)cc1 [drawing 172] (X21-[Orn(4R-OH,5R-OH)]T[Hyp][hTyr(3S-OH,4S-OH)]T[Pro(3S-OH,4S-Me)]; lactam 1-C) | – | – | 4.5
CCCCCCCCCCCCOc1ccc(CCC(=O)N[C@H]2C[C@@H](O)[C@@H](O)NC(=O)[C@@H]3[C@@H](O)[C@@H](C)CN3C(=O)[C@H]([C@@H](C)O)NC(=O)[C@H]([C@H](O)[C@@H](O)c3ccc(O)cc3)NC(=O)[C@@H]3C[C@@H](O)CN3C(=O)[C@H]([C@@H](C)O)NC2=O)cc1 [drawing 173] (X22-[Orn(4R-OH,5R-OH)]T[Hyp][hTyr(3S-OH,4S-OH)]T[Pro(3S-OH,4S-Me)]; lactam 1-C) | – | – | 4.5

Now from value to molecule, other results behind:

MIC [1] [μg/disc] | MIC [2] [μg/disc] | SMILES | ED50 [3] [mg/kg]
0.156 | < 0.156 | CCCCCCCCCCOc1ccc(OCC(=O)N[C@H]2C[C@@H](O)[C@@H](O)NC(=O)[C@@H]3[C@@H](O)[C@@H](C)CN3C(=O)[C@H]([C@@H](C)O)NC(=O)[C@H]([C@H](O)[C@@H](O)c3ccc(O)cc3)NC(=O)[C@@H]3C[C@@H](O)CN3C(=O)[C@H]([C@@H](C)O)NC2=O)cc1 (X25-[Orn(4R-OH,5R-OH)]T[Hyp][hTyr(3S-OH,4S-OH)]T[Pro(3S-OH,4S-Me)]; lactam 1-C) | –
5 | 0.156 | CCCCCOc1ccc(CCC(=O)N[C@H]2C[C@@H](O)[C@@H](O)NC(=O)[C@@H]3[C@@H](O)[C@@H](C)CN3C(=O)[C@H]([C@@H](C)O)NC(=O)[C@H]([C@H](O)[C@@H](O)c3ccc(O)cc3)NC(=O)[C@@H]3C[C@@H](O)CN3C(=O)[C@H]([C@@H](C)O)NC2=O)cc1 (X26-[Orn(4R-OH,5R-OH)]T[Hyp][hTyr(3S-OH,4S-OH)]T[Pro(3S-OH,4S-Me)]; lactam 1-C) | –
0.625 | 0.156 | CCCCCCCOc1ccc(CCC(=O)N[C@H]2C[C@@H](O)[C@@H](O)NC(=O)[C@@H]3[C@@H](O)[C@@H](C)CN3C(=O)[C@H]([C@@H](C)O)NC(=O)[C@H]([C@H](O)[C@@H](O)c3ccc(O)cc3)NC(=O)[C@@H]3C[C@@H](O)CN3C(=O)[C@H]([C@@H](C)O)NC2=O)cc1 (X29-[Orn(4R-OH,5R-OH)]T[Hyp][hTyr(3S-OH,4S-OH)]T[Pro(3S-OH,4S-Me)]; lactam 1-C) | –
